Measurements published in patent US20260285850A1, “SUBSTITUTED OXAZOLIDINONES AND IMIDAZOLINONES AS HERBICIDES” (FMC CORPORATION, priority 2023, published 2026).

Legend:
Assay type in all cases: in vivo
[1] = tested on: corn (Zea mays); assay: Test A preemergence soil spray, visual injury rating 0-100; details: 10 days
Summary of the method: (§1)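 Rating: visual, day 10, untreated plants as reference, 0 no effect to 100 full control. Plants were in loam-sand and were treated either preemergence via directed soil spray or postemergence at the one- to two-leaf stage.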

[2] = tested on: ragweed (common ragweed, Ambrosia artemisiifolia); assay: as above; details: 10 days
Summary of the method: as §1

[3] = tested on: oat, wild (wild oat, Avena fatua); assay: as above; details: 10 days
Summary of the method: as §1

[4] = tested on: wheat (Triticum aestivum); assay: as above; details: 10 days
Summary of the method: as §1

[5] = tested on: ryegrass, Italian (italian ryegrass, Lolium multiflorum); assay: as above; details: 10 days
Summary of the method: as §1

[6] = tested on: green foxtail (Setaria viridis); assay: as above; details: 10 days
Summary of the method: as §1

[7] = tested on: barnyardgrass (Echinochloa crus-galli); assay: as above; details: 10 days
Summary of the method: as §1

[8] = tested on: kochia (Bassia scoparia); assay: as above; details: 10 days
Summary of the method: as §1

[9] = tested on: soybean (Glycine max); assay: as above; details: 10 days
Summary of the method: as §1

[10] = tested on: palmer (palmer amaranth, palmer pigweed, Amaranthus palmeri); assay: as above; details: 10 days
Summary of the method: as §1

[11] = tested on: blackgrass (Alopecurus myosuroides); assay: as above; details: 10 days
Summary of the method: as §1

[12] = tested on: barnyardgrass (Echinochloa crusgalli); assay: Test B flooded paddy test, visual plant response rating 0-100; details: 250 g ai/ha, Flood, applied to paddy water, evaluated after 13 days
Summary of the method: (§2)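 Visual evaluation after 13 days. Water-applied treatment, 3 cm flood depth held constant, plants at 2-leaf stage at treatment.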

[13] = tested on: rice (Oryza sativa); assay: as above; details: 250 g ai/ha, Flood, applied to paddy water, evaluated after 13 days
Summary of the method: as §2

[14] = tested on: sedge, umbrella (small-flower umbrella sedge, Cyperus difformis); assay: as above; details: 250 g ai/ha, Flood, applied to paddy water, evaluated after 13 days
Summary of the method: as §2

[15] = tested on: ducksalad (Heteranthera limosa); assay: as above; details: 250 g ai/ha, Flood, applied to paddy water, evaluated after 13 days
Summary of the method: as §2

[16] = tested on: galium (catchweed bedstraw, Galium aparine); assay: Test A postemergence application, visual injury rating 0-100
Summary of the method: as §1

[17] = tested on: corn (Zea mays); assay: as above
Summary of the method: as §1

[18] = tested on: ragweed (common ragweed, Ambrosia artemisiifolia); assay: as above
Summary of the method: as §1

[19] = tested on: oat, wild (wild oat, Avena fatua); assay: as above
Summary of the method: as §1

[20] = tested on: wheat (Triticum aestivum); assay: as above
Summary of the method: as §1

[21] = tested on: ryegrass, Italian (italian ryegrass, Lolium multiflorum); assay: as above
Summary of the method: as §1

[22] = tested on: green foxtail (Setaria viridis); assay: as above
Summary of the method: as §1

[23] = tested on: barnyardgrass (Echinochloa crus-galli); assay: as above
Summary of the method: as §1

[24] = tested on: horseweed (Erigeron canadensis); assay: as above
Summary of the method: as §1

[25] = tested on: kochia (Bassia scoparia); assay: as above
Summary of the method: as §1

[26] = tested on: soybean (Glycine max); assay: as above
Summary of the method: as §1

[27] = tested on: palmer (palmer amaranth, palmer pigweed, Amaranthus palmeri); assay: as above
Summary of the method: as §1

[28] = tested on: blackgrass (Alopecurus myosuroides); assay: as above
Summary of the method: as §1

[29] = 62 g ai/ha, 0 = no effect, 100 = complete control
[30] = 62 g ai/ha, postemergence, 10 days, 0 = no effect, 100 = complete control
[31] = Postemergence, 16 g ai/ha, greenhouse 10 days, 0 no effect, 100 complete control

COC(=O)C1C=CC(NC(=O)C2(C)CN(c3cc(F)cc(F)c3)C(=O)O2)C1 (stereo not shown) [Compound 92]
0: Corn plant response rating ([1]; 16 g ai/ha, 0 to 100 scale) | Corn plant response rating (0-100) [1, 29] | Ragweed plant response rating ([2]; 16 g ai/ha, 0 to 100 scale) | Ragweed plant response rating (0-100) [2, 29] | Oat, Wild plant response rating ([3]; 16 g ai/ha, 0 to 100 scale) | Oat, Wild plant response rating (0-100) [3, 29] | Wheat plant response rating ([4]; 16 g ai/ha, 0 to 100 scale) | Wheat plant response rating (0-100) [4, 29] | Ryegrass, Italian plant response rating ([5]; 16 g ai/ha, 0 to 100 scale) | Ryegrass, Italian plant response rating (0-100) [5, 29] | Foxtail, Green plant response rating ([6]; 16 g ai/ha, 0 to 100 scale) | Foxtail, Green plant response rating (0-100) [6, 29] | Barnyardgrass plant response rating ([7]; 16 g ai/ha, 0 to 100 scale) | Barnyardgrass plant response rating (0-100) [7, 29] | Kochia plant response rating ([8]; 16 g ai/ha, 0 to 100 scale) | Kochia plant response rating (0-100) [8, 29] | Soybean plant response rating ([9]; 16 g ai/ha, 0 to 100 scale) | Soybean plant response rating (0-100) [9, 29] | Pigweed, Palmer plant response rating ([10]; 16 g ai/ha, 0 to 100 scale) | Blackgrass plant response rating ([11]; 16 g ai/ha, 0 to 100 scale) | Blackgrass plant response rating (0-100) [11, 29] | Plant response rating, Barnyardgrass (0 to 100 scale, 0 is no effect and 100 is complete control) [12] | Plant response rating, Rice (0 to 100 scale, 0 is no effect and 100 is complete control) [13] | Plant response rating, Sedge, Umbrella (0 to 100 scale, 0 is no effect and 100 is complete control) [14] | Plant response rating, Ducksalad (0 to 100 scale, 0 is no effect and 100 is complete control) [15] | Galium plant response rating (0-100) [16, 30] | Galium plant response rating (0 to 100 scale) [16, 31] | Corn plant response rating (0-100) [17, 30] | Corn plant response rating (0 to 100 scale) [17, 31] | Ragweed plant response rating (0 to 100 scale) [18, 31] | Oat, Wild plant response rating (0-100) [19, 30] | Oat, Wild plant response rating (0 to 100 scale) [19, 31] | Wheat plant response rating (0-100) [20, 30] | Wheat plant response rating (0 to 100 scale) [20, 31] | Ryegrass, Italian plant response rating (0-100) [21, 30] | Ryegrass, Italian plant response rating (0 to 100 scale) [21, 31] | Foxtail, Green plant response rating (0-100) [22, 30] | Foxtail, Green plant response rating (0 to 100 scale) [22, 31] | Barnyardgrass plant response rating (0-100) [23, 30] | Barnyardgrass plant response rating (0 to 100 scale) [23, 31] | Horseweed plant response rating (0-100) [24, 30] | Horseweed plant response rating (0 to 100 scale) [24, 31] | Kochia plant response rating (0-100) [25, 30] | Kochia plant response rating (0 to 100 scale) [25, 31] | Soybean plant response rating (0-100) [26, 30] | Soybean plant response rating (0 to 100 scale) [26, 31] | Pigweed, Palmer plant response rating (0-100) [27, 30] | Pigweed, Palmer plant response rating (0 to 100 scale) [27, 31] | Blackgrass plant response rating (0-100) [28, 30] | Blackgrass plant response rating (0 to 100 scale) [28, 31]
70: Pigweed, Palmer plant response rating (0-100) [10, 29]
20: Ragweed plant response rating (0-100) [18, 30]
